Measurements published in US9212396B2, “Materials and methods useful for affecting tumor cell growth, migration and invasion” (The Ohio State University, priority 2009, dated 2015).

Legend:
PTEN and TIMP3 = assay: Western blot of PTEN and TIMP3 in GTL16 cells; format: cell-based, human; conditions: GTL16 cells treated for 24 h with 4 μM
Protocol: Total proteins from NSCLC and HCC cells were extracted with radioimmuno-precipitation assay (RIPA) buffer ([…] NaCl, […] Tris-HCl, pH 7.5, 1% Triton, 0.1% SDS, 0.1% sodium deoxycholate and 1% Nonidet P40). Sample extract (50 μg) was resolved on 7.5-12% SDS-polyacrylamide gels (PAGE) using a mini-gel apparatus (Bio-Rad Laboratories) and transferred to Hybond-C extra nitrocellulose. Membranes were blocked for 1 h with 5% nonfat dry milk in Tris-buffered saline containing 0.05% Tween 20, incubated overnight with primary antibody, washed and incubated with secondary antibody, and visualized by chemiluminescence.
The following primary antibodies were used: anti-PTEN, anti-c-Jun, anti-p-c-Jun, anti-Fos, anti-p-JNK, anti-MMP3, anti-Mc1-1 (Santa Cruz), anti-TIMP3 (Millipore) anti-PI3K (BD Biosciences), anti-ERKs, anti-phospho ERKs, anti-AKT, anti-p-AKT, anti-GSK3b, anti-p-GSK3b (Ser9), anti-PAK1 anti-caspase-8,-3 and -9, anti-PARP, anti-cytochrome c (Cell signaling) and anti-MMP9, anti-FADD (Abcam), anti-1-actin antibody (Sigma). A secondary anti-rabbit or anti-mouse immunoglobulin G (IgG) antibody peroxidase conjugate (Chemicon) was used.

miR-221 and miR-222 = assay: qRT-PCR of miR-221 and miR-222 in GTL16 cells; format: cell-based, human; conditions: GTL-16 cells, MET inhibition, compared with the untreated cells
Protocol: Real-time PCR was performed using a standard TaqMan PCR Kit protocol on an Applied Biosystems 7900HT Sequence Detection System (Applied Biosystems). The 10 μl PCR reaction included 0.67 μl RT product, 1 μl TaqMan Universal PCR Master Mix (Applied Biosystems), […]. The reactions were incubated in a 96-well plate at 95° C. for […], followed by 40 cycles of 95° C. for 15 s and 60° C. for 1 min. All reactions were run in triplicate. The threshold cycle (CT) is defined as the fractional cycle number at which the fluorescence passes the fixed threshold. The comparative CT method for relative quantization of gene expression (Applied Biosystems) was used to determine miRNA expression levels. The y axis represents the 2(-CT), or the relative expression of the different miRs. miRs expression was calculated relative to U44 and U48 rRNA and multiplied by 104. Experiments were carried out in triplicate for each data point, and data analysis was performed by using software (Bio-Rad).

Calu-1 xenograft = Calu-1 xenograft in nude mice treated with TRAIL; format: in vivo; conditions: Calu-1 shMET vs sh control, TRAIL 10 mg/kg/d ip
Protocol: (§1) Animal studies were performed according to institutional guidelines. NCI-H460 cells were stable transfected by using shPTEN and TIMP3 plasmids (Santa Cruz); Calu-1 cells were stable transfected with shMET. After the selection in puromycin for 10 days 5 106 (H460) or 7106 (Calu-1) viable cells were injected s.c. into the right flanks of 6-wk-old male nude mice (Charles RiverBreeding Laboratories, Wilmington, Mass.). Treatment started five days (H460 xenograft) or ten days (Calu-1 xenograft) from tumor cell inoculation by daily ip injections of TRAIL/Apo2 (10 mg/kg/d) or vehicle (PBS) for two cycles of 5 days. Tumor size was assessed every five days by a digital caliper. The tumor volumes were determined by measuring the length (1) and the width (w) and calculating the volume (V=lw2/2). 35 days after injection, mice were sacrificed and tumors samples were analyzed by western blot for PTEN, TIMP3 and MET expression. Statistical significance between control and treated animals was evaluated by using Student's t test. Animal experiments were conducted after approval of the Institutional animal care and use committee, Ohio State University.

H460 xenograft = H460 xenograft in nude mice treated with TRAIL; format: in vivo; conditions: H460 shPTEN and shTIMP3 vs sh control, TRAIL 10 mg/kg/d ip, 35 days
Protocol: as §1

HCC-derived cell lines = assay: Proliferation (MTT) assay on HCC-derived cell lines exposed to TRAIL; format: cell-based, human; conditions: TRAIL 400 ng/ml 24 h
Protocol: Cells were plated in 96-well plates in triplicate and incubated at 37° C. in a 5% CO2 incubator. Super-Killer TRAIL (Alexis Biochemicals) was used for 24-48 h at 400 ng ml-1. Cell viability was examined with 3-(4,5-dimethylthiazol-2-yl)-2,5-dipheniltetrazolium bromide (MTT)-Cell Titer 96 AQueous One Solution Cell Proliferation Assay (Promega), according to the manufacturer's protocol. Metabolically active cells were detected by adding 20 μl of MTT to each well. After 1 h of incubation, the plates were analyzed in a Multilabel Counter (Bio-Rad Laboratories). Apoptosis was assessed using Annexin V-FITC apoptosis detection kits followed by flowcytometric analysis and caspase 3/7 activity. Cells were seeded at 1.8106 cells per 100 mm dish, grown overnight in 10% FBS/RPMI, washed with phosphate-buffered saline (PBS) and then treated for 24 h with 400 ng/ml TRAIL. Following incubation, cells were washed with cold PBS and removed from the plates by trypsinization. […] Statistical analysis was done using two sample t test, assuming equal variance, and P value was calculated based on two-tailed test. For detection of caspase 3/7 activity, cells were cultured in 96-well plates and treated with TRAIL 400 ng/ml and analyzed using Caspase-Glo 3/7 Assay kit (Promega) according to the manufacturer's instructions. Continuous variables are expressed as mean values±standard deviation (s.d.).

Row | Molecule | miR-221 and miR-222 targets (PTEN, TIMP3) expression levels, western blot (PTEN and TIMP3) | miR-221 and miR-222 downregulated (qRT-PCR) (miR-221 and miR-222) | tumor growth / sensitivity to TRAIL (Calu-1 xenograft) | tumor engraftment size / TRAIL resistance (H460 xenograft) | cell proliferation / TRAIL-induced cell death (MTT) (HCC-derived cell lines; HepG2, Sk-Hep1 and Huh 7, low miR-221-miR-222 expression) | cell proliferation / TRAIL-induced cell death (MTT) (HCC-derived cell lines; PLC/PRF-5 and Snu-387, high miR-221-miR-222 expression)
1 | Cc1[nH]c(/C=C2\C(=O)Nc3ccc(S(=O)(=O)N(C)c4cccc(Cl)c4)cc32)c(C)c1C(=O)N1CCN(C)CC1 [SU11274] | increased miR-221 and miR-222 targets expression levels | about 40% | – | – | – | –
2 | TRAIL | – | – | more sensitive to TRAIL inducing apoptosis | increases TRAIL resistance in vivo | underwent TRAIL-induced cell death | did not display sensitivity
